Experimental data: ChEMBL document CHEMBL2424589, “Novel hydroxyl tricyclics (e.g., GSK966587) as potent inhibitors of bacterial type IIA topoisomerases” (Bioorg Med Chem Lett, 2013)
Values after ≈ are worked out from the molar mass of the structure shown.

What was measured:
Canis familiaris [1] = species on record: Canis familiaris; experiment: Toxicity in dog assessed as hepatic portal tract lesions measured for 14 days by GLP assay; format: organism-based, Canis lupus familiaris; settings: in vivo, 336 h
[2] = Cmax in nonneutropenic mouse infected with Streptococcus pneumoniae 1629 at 50 mg/kg, po bid; format: ADME, organism-based; design: dose 50 mg/kg, route oral; settings: in vivo
[3] = AUC in nonneutropenic mouse infected with Streptococcus pneumoniae 1629 at 50 mg/kg, po bid measured per day; format: ADME, organism-based; design: dose 50 mg/kg, route oral; settings: plasma
Streptococcus pneumoniae [4] = experiment: Antibacterial activity against Streptococcus pneumoniae 1629 infected in nonneutropenic mouse assessed as reduction in bacterial burden in lungs at 100 mg/kg, po bid after 48 hrs; format: functional, Lung
Streptococcus pneumoniae [5] = experiment: Antibacterial activity against Streptococcus pneumoniae 1629 infected in nonneutropenic mouse assessed as reduction in bacterial burden in lungs at 50 mg/kg, po bid after 48 hrs relative to 1 hr nontreated control; format: functional, Lung
Liver microsomes = experiment: Intrinsic clearance in human liver microsomes; format: ADME, Microsome
[6] = Intrinsic clearance in monkey liver microsomes; format: ADME, Macaca mulatta, Microsome; settings: rhesus monkey
Liver = experiment: Intrinsic clearance in dog liver microsomes; format: ADME, Canis lupus familiaris, Microsome
[7] = Plasma protein binding in human; format: ADME, cell-free; settings: read-out: PPB (converted)
[8] = Plasma protein binding in monkey; format: ADME, cell-free, Macaca mulatta; settings: rhesus monkey, read-out: PPB (converted)
[9] = Plasma protein binding in dog; format: ADME, cell-free, Canis lupus familiaris; settings: read-out: PPB (converted)
[10] = Plasma protein binding in rat; format: ADME, cell-free; settings: read-out: PPB (converted)
Cynomolgus monkey [11] = experiment: Renal clerance in cynomolgus monkey relative to total clearance; format: ADME, organism-based, Macaca fascicularis, Kidney; settings: in vivo
Canis familiaris [12] = species on record: Canis familiaris; experiment: Renal clerance in Beagle dog relative to total clearance; format: ADME, organism-based, Canis lupus familiaris, Kidney; settings: in vivo
Cynomolgus monkey [13] = experiment: Blood clerance in cynomolgus monkey relative to hepatic blood flow; format: ADME, organism-based, Macaca fascicularis; settings: in vivo
Canis familiaris [14] = species on record: Canis familiaris; experiment: Blood clerance in Beagle dog relative to hepatic blood flow; format: ADME, organism-based, Canis lupus familiaris; settings: in vivo
Rattus norvegicus = species on record: Rattus norvegicus; experiment: Blood clerance in Sprague-Dawley rat relative to hepatic blood flow; format: ADME, organism-based; settings: in vivo
[15] = Oral bioavailability in cynomolgus monkey at 5 mg/kg; format: ADME, organism-based, Macaca fascicularis; settings: in vivo
[16] = Oral bioavailability in Beagle dog at 5 mg/kg; format: ADME, organism-based, Canis lupus familiaris; settings: in vivo
[17] = AUC in cynomolgus monkey at 5 mg/kg, po; format: ADME, organism-based, Macaca fascicularis; design: dose 5 mg/kg, route oral; settings: plasma
[18] = Oral bioavailability in Sprague-Dawley rat at 5 mg/kg; format: ADME, organism-based; settings: in vivo
[19] = AUC in Beagle dog at 5 mg/kg, po; format: ADME, organism-based, Canis lupus familiaris; design: dose 5 mg/kg, route oral; settings: plasma
[20] = AUC in Sprague-Dawley rat at 5 mg/kg, po; format: ADME, organism-based; design: dose 5 mg/kg, route oral; settings: plasma
[21] = Half life in Beagle dog at 3 mg/kg, iv; format: ADME, organism-based, Canis lupus familiaris; design: dose 3 mg/kg, route intravenous; settings: in vivo
[22] = Half life in cynomolgus monkey at 3 mg/kg, iv; format: ADME, organism-based, Macaca fascicularis; design: dose 3 mg/kg, route intravenous; settings: in vivo
[23] = Half life in Sprague-Dawley rat at 3 mg/kg, iv; format: ADME, organism-based; design: dose 3 mg/kg, route intravenous; settings: in vivo
[24] = Volume of distribution at steady state in cynomolgus monkey at 3 mg/kg, iv; format: ADME, organism-based, Macaca fascicularis; design: dose 3 mg/kg, route intravenous; settings: in vivo, read-out: Vdss
[25] = Volume of distribution at steady state in Beagle dog at 3 mg/kg, iv; format: ADME, organism-based, Canis lupus familiaris; design: dose 3 mg/kg, route intravenous; settings: in vivo, read-out: Vdss
[26] = Volume of distribution at steady state in Sprague-Dawley rat at 3 mg/kg, iv; format: ADME, organism-based; design: dose 3 mg/kg, route intravenous; settings: in vivo, read-out: Vdss
[27] = Clearance in cynomolgus monkey at 3 mg/kg, iv; format: ADME, organism-based, Macaca fascicularis; design: dose 3 mg/kg, route intravenous; settings: in vivo
[28] = Clearance in Beagle dog at 3 mg/kg, iv; format: ADME, organism-based, Canis lupus familiaris; design: dose 3 mg/kg, route intravenous; settings: in vivo
[29] = Clearance in Sprague-Dawley rat at 3 mg/kg, iv; format: ADME, organism-based; design: dose 3 mg/kg, route intravenous; settings: in vivo
[30] = biological target: T1, Voltage-gated inwardly rectifying potassium channel KCNH2 (Homo sapiens, UniProt Q12809); experiment: Inhibition of human ERG transfected in HEK293 cells by patch clamp assay; format: cell-based
T1 sequence (Q12809 whole entry): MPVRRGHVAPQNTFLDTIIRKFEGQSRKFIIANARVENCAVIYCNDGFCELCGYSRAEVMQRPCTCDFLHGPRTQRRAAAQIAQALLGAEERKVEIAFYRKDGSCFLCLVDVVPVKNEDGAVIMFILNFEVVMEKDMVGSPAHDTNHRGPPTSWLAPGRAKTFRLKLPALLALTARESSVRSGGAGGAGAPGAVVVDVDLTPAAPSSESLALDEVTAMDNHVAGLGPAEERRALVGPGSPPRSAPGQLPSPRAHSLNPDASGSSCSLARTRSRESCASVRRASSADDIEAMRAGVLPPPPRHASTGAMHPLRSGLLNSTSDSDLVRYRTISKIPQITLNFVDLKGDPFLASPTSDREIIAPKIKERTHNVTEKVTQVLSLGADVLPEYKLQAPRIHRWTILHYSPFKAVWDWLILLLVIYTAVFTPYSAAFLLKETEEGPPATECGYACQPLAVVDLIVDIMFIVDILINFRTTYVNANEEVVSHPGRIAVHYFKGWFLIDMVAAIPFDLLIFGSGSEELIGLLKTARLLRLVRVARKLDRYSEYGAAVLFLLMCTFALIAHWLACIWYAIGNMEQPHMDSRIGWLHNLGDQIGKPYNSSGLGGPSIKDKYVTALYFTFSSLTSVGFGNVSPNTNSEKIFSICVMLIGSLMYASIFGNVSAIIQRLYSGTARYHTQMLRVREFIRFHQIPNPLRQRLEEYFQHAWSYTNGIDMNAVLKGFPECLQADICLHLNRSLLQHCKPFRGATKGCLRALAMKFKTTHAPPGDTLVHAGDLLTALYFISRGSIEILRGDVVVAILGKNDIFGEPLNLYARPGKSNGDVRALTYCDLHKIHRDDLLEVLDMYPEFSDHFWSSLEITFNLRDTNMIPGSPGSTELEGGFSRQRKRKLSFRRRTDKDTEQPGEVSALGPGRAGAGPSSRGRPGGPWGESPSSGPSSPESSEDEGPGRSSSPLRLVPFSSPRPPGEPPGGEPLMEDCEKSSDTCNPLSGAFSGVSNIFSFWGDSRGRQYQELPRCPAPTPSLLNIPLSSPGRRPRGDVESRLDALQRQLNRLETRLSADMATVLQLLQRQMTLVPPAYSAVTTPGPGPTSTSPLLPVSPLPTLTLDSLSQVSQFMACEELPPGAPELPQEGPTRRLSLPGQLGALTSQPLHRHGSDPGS

[31] = biological target: T1, Voltage-gated inwardly rectifying potassium channel KCNH2; experiment: Inhibition of human ERG by patch clamp assay
Streptococcus pneumoniae [32] = experiment: Antibacterial activity against Streptococcus pneumoniae 1629 assessed as growth inhibition after 18 to 24 hrs by broth microdilution method; format: functional
Staphylococcus aureus = experiment: Antibacterial activity against Staphylococcus aureus WCUH-29 assessed as growth inhibition after 18 to 24 hrs by broth microdilution method; format: functional
Haemophilus influenzae = experiment: Antibacterial activity against Haemophilus influenzae H128 assessed as growth inhibition after 18 to 24 hrs by broth microdilution method; format: functional
[33] = Inhibition of DNA gyrase-dependent DNA replication in toluenized-Haemophilus influenzae cells assessed as ATP-dependent [33P]-TTP incorporation after 30 mins by scintillation proximity assay; settings: 0.5 h

With `O=c1ccc2ncc(F)c3c2n1C[C@@]3(O)CN1CCC(NCc2cc3c(cn2)OCCO3)CC1` the Activity (Canis familiaris [1]) was “Toxic”, the Cmax [2] was 8000 ng/mL and the AUC [3] was 50000 ng·h/mL. For the same compound, the log10cfu (Streptococcus pneumoniae [4]) was 1.7, the log10cfu (Streptococcus pneumoniae [5]) was 2 and the CLH (Liver microsomes) was less than 0.5 mL/min/g. The CLH [6] was 1.6 mL/min/g, the CLH (Liver) was less than 0.5 mL/min/g and the fraction unbound [7] was 0.777. For the same compound, the fraction unbound [8] was 0.781, the fraction unbound [9] was 0.823 and the fraction unbound [10] was 0.577. For the same compound, the CL (Cynomolgus monkey [11]) was 15%, the CL (Canis familiaris [12]) was 27% and the CL (Cynomolgus monkey [13]) was 50%. It also gave a CL (Canis familiaris [14]) of 50%, a CL (Rattus norvegicus) of 100% and a bioavailability [15] of 55%. For the same compound, the bioavailability [16] was 63%, the AUC [17] was 1920 ng·h/mL and the bioavailability [18] was 34%. It also gave an AUC [19] of 2820 ng·h/mL, an AUC [20] of 460 ng·h/mL and a half-life [21] of 7.1 h. For the same compound, the half-life [22] was 2.3 h, the half-life [23] was 3.1 h and the Vd [24] was 3.4 L/kg. It also gave a Vd [25] of 6.4 L/kg, a Vd [26] of 8.6 L/kg and a clearance [27] of 25.1 mL/min/kg. It also gave a clearance [28] of 18.1 mL/min/kg, a clearance [29] of 62.2 mL/min/kg and an IC50 [30] of 310 µM. For the same compound, the IC50 [31] was 239 µM, the MIC (Streptococcus pneumoniae [32]) was 0.125 µg/mL (≈ 0.267 µM) and the MIC (Staphylococcus aureus) was 0.125 µg/mL (≈ 0.267 µM). For the same compound, the MIC (Haemophilus influenzae) was 1 µg/mL (≈ 2.14 µM) and the IC50 [33] was 0.035 µg/mL (≈ 0.0749 µM).

With `O=c1ccc2ncc(F)c3c2n1C[C@]3(O)CN1CCC(NCc2cc3c(cn2)OCCO3)CC1` the Activity (Canis familiaris [1]) was “Non-toxic”, the MIC (Streptococcus pneumoniae [32]) was 4 µg/mL (≈ 8.56 µM) and the MIC (Staphylococcus aureus) was 8 µg/mL (≈ 17.1 µM). For the same compound, the MIC (Haemophilus influenzae) was greater than 16 µg/mL and the IC50 [33] was greater than 1.32 µg/mL.

With `O=c1ccc2ncc(F)c3c2n1C[C@@]3(F)CN1CCC(NCc2cc3c(cn2)OCCO3)CC1` the Activity (Canis familiaris [1]) was “Non-toxic”, the MIC (Streptococcus pneumoniae [32]) was 0.06 µg/mL (≈ 0.128 µM) and the MIC (Staphylococcus aureus) was 0.03 µg/mL (≈ 0.0639 µM). It also gave an MIC (Haemophilus influenzae) of 0.5 µg/mL (≈ 1.06 µM) and an IC50 [33] of 0.04 µg/mL (≈ 0.0852 µM).

For `O=c1ccc2ncc(F)c3c2n1C[C@H]3CN1CCC(NCc2cc3c(cn2)OCCO3)CC1`, the Activity (Canis familiaris [1]) was “Non-toxic”, the IC50 [30] was 122 µM and the IC50 [31] was 58 µM. For the same compound, the MIC (Streptococcus pneumoniae [32]) was 0.06 µg/mL (≈ 0.133 µM), the MIC (Staphylococcus aureus) was 0.03 µg/mL (≈ 0.0664 µM) and the MIC (Haemophilus influenzae) was 0.25 µg/mL (≈ 0.554 µM). It also gave an IC50 [33] of 0.035 µg/mL (≈ 0.0775 µM).

In the case of `O=c1ccc2ccc(F)c3c2n1C[C@@]3(O)CN1CCC(NCc2cc3c(cn2)OCCO3)CC1`, the Activity (Canis familiaris [1]) is reported as “Non-toxic”, the MIC (Streptococcus pneumoniae [32]) is reported as 0.125 µg/mL (≈ 0.268 µM) and the MIC (Staphylococcus aureus) is reported as 0.06 µg/mL (≈ 0.129 µM). The MIC (Haemophilus influenzae) was 1 µg/mL (≈ 2.14 µM) and the IC50 [33] was 0.071 µg/mL (≈ 0.152 µM).

For `O=c1cnc2ccc(F)c3c2n1C[C@@]3(O)CN1CCC(NCc2cc3c(cn2)OCCO3)CC1`, the Activity (Canis familiaris [1]) was “Non-toxic”, the IC50 [30] was 206 µM and the IC50 [31] was 101 µM. For the same compound, the MIC (Streptococcus pneumoniae [32]) was 0.125 µg/mL (≈ 0.267 µM), the MIC (Staphylococcus aureus) was 0.125 µg/mL (≈ 0.267 µM) and the MIC (Haemophilus influenzae) was 0.5 µg/mL (≈ 1.07 µM). The IC50 [33] was 0.058 µg/mL (≈ 0.124 µM).

In the case of `O=c1c(F)cc2ncc(F)c3c2n1C[C@@]3(O)CN1CCC(NCc2cc3c(cn2)OCCO3)CC1`, the Activity (Canis familiaris [1]) is reported as “Non-toxic”, the IC50 [31] is reported as 289 µM and the MIC (Streptococcus pneumoniae [32]) is reported as 0.25 µg/mL (≈ 0.515 µM). It also gave an MIC (Staphylococcus aureus) of 0.25 µg/mL (≈ 0.515 µM), an MIC (Haemophilus influenzae) of 0.5 µg/mL (≈ 1.03 µM) and an IC50 [33] of 0.037 µg/mL (≈ 0.0762 µM).

For `O=c1ccc2ncc(F)c3c2n1C[C@@]3(O)CN1CCC[C@@H](CNCc2cc3c(cn2)OCCO3)C1`, the Activity (Canis familiaris [1]) was “Non-toxic”, the MIC (Streptococcus pneumoniae [32]) was 4 µg/mL (≈ 8.31 µM) and the MIC (Staphylococcus aureus) was 4 µg/mL (≈ 8.31 µM). It also gave an MIC (Haemophilus influenzae) of 16 µg/mL (≈ 33.2 µM) and an IC50 [33] of 1.21 µg/mL (≈ 2.52 µM).

In the case of `O=c1ccc2ncc(F)c3c2n1C[C@@]3(O)CN1CCO[C@@H](CNCc2cc3c(cn2)OCCO3)C1`, the Activity (Canis familiaris [1]) is reported as “Non-toxic”, the MIC (Streptococcus pneumoniae [32]) is reported as 4 µg/mL (≈ 8.27 µM) and the MIC (Staphylococcus aureus) is reported as greater than 16 µg/mL. The MIC (Haemophilus influenzae) was 4 µg/mL (≈ 8.27 µM) and the IC50 [33] was 0.361 µg/mL (≈ 0.747 µM).
